# Test results published in patent publication US20250230155A1 (Vanderbilt University, priority 2021, published 2025).
# Target: T1, human mAChR M4 (Homo sapiens, UniProt P08173)
# T1 construct: expressed in transfected cells
# T1 sequence (P08173 1-479): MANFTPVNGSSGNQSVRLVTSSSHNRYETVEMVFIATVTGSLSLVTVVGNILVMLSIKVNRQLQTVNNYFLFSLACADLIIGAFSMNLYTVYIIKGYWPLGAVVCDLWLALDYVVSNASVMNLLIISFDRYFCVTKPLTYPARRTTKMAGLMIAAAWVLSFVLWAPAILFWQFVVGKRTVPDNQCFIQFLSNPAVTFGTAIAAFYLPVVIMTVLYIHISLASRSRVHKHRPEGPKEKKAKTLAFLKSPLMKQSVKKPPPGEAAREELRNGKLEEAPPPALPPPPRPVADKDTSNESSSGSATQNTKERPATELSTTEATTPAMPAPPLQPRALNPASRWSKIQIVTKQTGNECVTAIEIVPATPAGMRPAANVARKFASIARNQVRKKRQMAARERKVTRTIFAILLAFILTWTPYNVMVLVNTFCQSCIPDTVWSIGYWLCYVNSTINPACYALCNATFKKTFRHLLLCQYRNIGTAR
# Experiment: mAChR M4 cell-based functional assay (calcium mobilization, CHO-K1 hM4-Gqi5 cells)
# Details: for Emax at 30 µM: CHO-K1, % ACh maximum at 30 μM, human M4; for EC50: positive allosteric modulator activity, increase in the EC20 acetylcholine response, CHO-K1 hM4-Gqi5 cells, read-out: Human M4 EC50
# Procedure, shortened: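 Fluorescent calcium read-out (Fluo-4 AM, FDSS, 1 Hz) in hM4-Gqi5 CHO-K1 cells, 11-point 1:3 compound series. Agonism scored on compound addition, PAM activity as increase of the 144 s EC20 acetylcholine response, antagonism as decrease of the 230 s EC80 response; four-parameter logistic fits give EC50 and Emax.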
Compound,Emax at 30 µM [%],EC50 [nM],Emax (CHO-K1) [%]
"Cc1c(C#N)nnc(N2CCc3ncc(C(C)(O)C(F)(F)F)cc3C2)c1C (centres unmarked) [Example 425, 4,5-dimethyl-6-(3-(1,1,1-trifluoro-2-hydroxypropan-2-yl)-7,8-dihydro-1,6-naphthyridin-6(5H)-yl)pyridazine-3-carbonitrile]",61,621,–
"Cc1c(C(=O)NCc2ccccn2)nnc(N2CCc3ncccc3C2)c1C [compound 137, 6-(7,8-dihydro-5H-1,6-naphthyridin-6-yl)-4,5-dimethyl-N-(2-pyridylmethyl)pyridazine-3-carboxamide]",91,3380,–
"Cc1cc(C#N)cnc1N1CCc2ncc(-c3cnn(C4CC4)c3)cc2C1 [compound 96, 6-[3-(1-cyclopropylpyrazol-4-yl)-7,8-dihydro-5H-1,6-naphthyridin-6-yl]-5-methyl-pyridine-3-carbonitrile]",95,302,–
"Cc1cc(C#N)cnc1N1CCc2ncc(N(C)c3ccnn3C)cc2C1 [Example 331, 5-methyl-6-(3-(methyl(1-methyl-1H-pyrazol-5-yl)amino)-7,8-dihydro-1,6-naphthyridin-6(5H)-yl)nicotinonitrile]",86,43,–
"CCOc1nc(N2CCc3ncc(C(F)(F)F)cc3C2)c(C)cc1C#N [Example 373, 2-ethoxy-5-methyl-6-(3-(trifluoromethyl)-7,8-dihydro-1,6-naphthyridin-6(5H)-yl)nicotinonitrile]",64,1740,–
"Cc1cc(C#N)nnc1N1CCc2ncc(N3CCN(C)C(=O)C3)cc2C1 [Example 410, 5-methyl-6-(3-(4-methyl-3-oxopiperazin-1-yl)-7,8-dihydro-1,6-naphthyridin-6(5H)-yl)pyridazine-3-carbonitrile]",89,3800,–
"Cc1nc(Cl)c(C)c(N2CCc3ncc(Nc4ccccc4F)cc3C2)n1 [compound 85, 6-(6-chloro-2,5-dimethyl-pyrimidin-4-yl)-N-(2-fluorophenyl)-7,8-dihydro-5H-1,6-naphthyridin-3-amine]",86,361,–
"Cc1cnc2c(c1)CN(c1nnc(C(=O)NCc3ccncc3)c(C)c1C)CC2 [Example 486, 4,5-dimethyl-6-(3-methyl-7,8-dihydro-1,6-naphthyridin-6(5H)-yl)-N-(pyridin-4-ylmethyl)pyridazine-3-carboxamide]",97,286,–
"Cc1cc(C(=O)NC2CCc3ncccc3C2)nnc1N1CCc2ncc(C(F)(F)F)cc2C1 (centres unmarked) [Example 501, 5-methyl-N-(5,6,7,8-tetrahydroquinolin-6-yl)-6-(3-(trifluoromethyl)-7,8-dihydro-1,6-naphthyridin-6(5H)-yl)pyridazine-3-carboxamide]",109,127,–
"COc1ccc(Br)cc1CNC(=O)c1cnc(N2CCc3ncccc3C2)c(C)c1 [compound 141, N-[(5-bromo-2-methoxy-phenyl)methyl]-6-(7,8-dihydro-5H-1,6-naphthyridin-6-yl)-5-methyl-pyridine-3-carboxamide]",56,1420,–
"Cc1cc(C(=O)NC2CC3(COC3)C2)cnc1N1CCc2ncc(-c3cn(C)nc3C)cc2C1 [Example 475, 6-(3-(1,3-dimethyl-1H-pyrazol-4-yl)-7,8-dihydro-1,6-naphthyridin-6(5H)-yl)-5-methyl-N-(2-oxaspiro[3.3]heptan-6-yl)nicotinamide]",64,1740,–
"Cc1cnccc1CNC(=O)c1cnc(N2CCc3ncccc3C2)c(C)c1 [compound 130, 6-(7,8-dihydro-5H-1,6-naphthyridin-6-yl)-5-methyl-N-[(3-methyl-4-pyridyl)methyl]pyridine-3-carboxamide]",82,507,–
"Cc1cc(C#N)nnc1N1CCc2ncc(N3CCCn4nccc43)cc2C1 [Example 360, 6-(3-(6,7-dihydropyrazolo[1,5-a]pyrimidin-4(5H)-yl)-7,8-dihydro-1,6-naphthyridin-6(5H)-yl)-5-methylpyridazine-3-carbonitrile]",129,88,–
"Cc1cc(C#N)cnc1N1CCc2ncc(-c3c(C)nn(C)c3C)cc2C1 [compound 107, 5-methyl-6-[3-(1,3,5-trimethylpyrazol-4-yl)-7,8-dihydro-5H-1,6-naphthyridin-6-yl]pyridine-3-carbonitrile]",98,142,–
"Cc1cc(C#N)cnc1N1CCc2nc(C)c(N3CCOC(C)(C)C3)cc2C1 [Example 377, 6-(3-(2,2-dimethylmorpholino)-2-methyl-7,8-dihydro-1,6-naphthyridin-6(5H)-yl)-5-methylnicotinonitrile]",–,760,76
"Cc1cc(C#N)nnc1N1CCc2ncc(Oc3ccc(F)cc3F)cc2C1 [Example 355, 6-(3-(2,4-difluorophenoxy)-7,8-dihydro-1,6-naphthyridin-6(5H)-yl)-5-methylpyridazine-3-carbonitrile]",81,297,–
"Cc1cc(C#N)cnc1N1CCc2ncc(CC(F)(F)F)cc2C1 [Example 423, 5-methyl-6-(3-(2,2,2-trifluoroethyl)-7,8-dihydro-1,6-naphthyridin-6(5H)-yl)nicotinonitrile]",76,229,–
"Cc1nc(C)c(C)c(N2CCc3ncc(-c4ccc(N5CCCC5)nc4)cc3C2)n1 [compound 231, 3-(6-(pyrrolidin-1-yl)pyridin-3-yl)-6-(2,5,6-trimethylpyrimidin-4-yl)-5,6,7,8-tetrahydro-1,6-naphthyridine]",63,668,–
"Cc1cc(C(=O)NCc2csc3ccccc23)cnc1N1CCc2ncc(-c3cn(C)nc3C)cc2C1 [Example 452, N-(benzo[b]thiophen-3-ylmethyl)-6-(3-(1,3-dimethyl-1H-pyrazol-4-yl)-7,8-dihydro-1,6-naphthyridin-6(5H)-yl)-5-methylnicotinamide]",89,1790,–
"Cc1cc(-c2cnc3c(c2)CN(c2nc(C)nc(Cl)c2C)CC3)ccn1 [compound 93, 6-(6-chloro-2,5-dimethyl-pyrimidin-4-yl)-3-(2-methyl-4-pyridyl)-7,8-dihydro-5H-1,6-naphthyridine]",95,123,–
"COc1cc(-c2cnc3c(c2)CN(c2ncc(C#N)cc2C)CC3)c(Cl)cn1 [Example 341, 6-(3-(5-chloro-2-methoxypyridin-4-yl)-7,8-dihydro-1,6-naphthyridin-6(5H)-yl)-5-methylnicotinonitrile]",49,1490,–
"Cc1cc(C(=O)N2Cc3ccncc3C2)nnc1N1CCc2ncc(N3CCCn4nccc43)cc2C1 [Example 512, (1,3-dihydro-2H-pyrrolo[3,4-c]pyridin-2-yl)(6-(3-(6,7-dihydropyrazolo[1,5-a]pyrimidin-4(5H)-yl)-7,8-dihydro-1,6-naphthyridin-6(5H)-yl)-5-methylpyridazin-3-yl)methanone]",95,19,–
"Cc1cc(C(=O)NCc2ccncc2F)nnc1N1CCc2ncc(C(F)(F)F)cc2C1 [Example 496, N-((3-fluoropyridin-4-yl)methyl)-5-methyl-6-(3-(trifluoromethyl)-7,8-dihydro-1,6-naphthyridin-6(5H)-yl)pyridazine-3-carboxamide]",102,37,–
"Cc1cc(C(=O)NCc2ccnc3ccccc23)cnc1N1CCc2ncccc2C1 [compound 131, 6-(7,8-dihydro-5H-1,6-naphthyridin-6-yl)-5-methyl-N-(4-quinolylmethyl)pyridine-3-carboxamide]",57,876,–
"Cc1ccc(-c2cnc3c(c2)CN(c2ncc(C#N)cc2C)CC3)cn1 [compound 187, 5-methyl-6-[3-(6-methyl-3-pyridyl)-7,8-dihydro-5H-1,6-naphthyridin-6-yl]pyridine-3-carbonitrile]",108,138,–
"Cc1cc2n(n1)CCCN2c1cnc2c(c1)CN(c1nnc(C#N)c(C)c1C)CC2 [Example 363, 4,5-dimethyl-6-(3-(2-methyl-6,7-dihydropyrazolo[1,5-a]pyrimidin-4(5H)-yl)-7,8-dihydro-1,6-naphthyridin-6(5H)-yl)pyridazine-3-carbonitrile]",90,148,–
"Cc1nn(C)cc1-c1cnc2c(c1)CN(c1nc(C(F)(F)F)nc(Cl)c1C)CC2 [compound 245, 6-(6-chloro-5-methyl-2-(trifluoromethyl)pyrimidin-4-yl)-3-(1,3-dimethyl-1/-pyrazol-4-yl)-5,6,7,8-tetrahydro-1,6-naphthyridine]",56,641,–
"Cc1cc(C(=O)N2CC3(C2)CC(F)(F)C3)nnc1N1CCc2ncc(-n3cccn3)cc2C1 [Example 570, (6-(3-(1H-pyrazol-1-yl)-7,8-dihydro-1,6-naphthyridin-6(5H)-yl)-5-methylpyridazin-3-yl)(6,6-difluoro-2-azaspiro[3.3]heptan-2-yl)methanone]",84,340,–
